Measurements as given in patent US12673070B2, “Treatment of sepsis and hypercytokinemia” (TX MEDIC AB, priority 2020, dated 2026).
Entries after “also recorded” stand apart in the source; their conditions may differ.

Key:
[1] = monoclonal antibodies neutralizing TNFα; cited from earlier work
[2] = system: human purified monocytes; assay: Stimulated IL-6 release from human purified monocytes (ELISA), Example 2; type: cell-based; settings: 24 hours, LMW-DS 60-600 μg/ml, heparin 2.0-20 μg/ml, dexamethasone 3.0 μM, n=10 donors; for LPS-stimulated IL-6 release into the cell culture supernatant: LPS (0.01 ng/ml); for peptidoglycan-stimulated IL-6 release into the cell culture supernatant: peptidoglycan (30 ng/ml)
Experimental: Peripheral blood mononuclear cells (PBMC) were isolated from healthy donors through Ficoll-Paque PLUS (GE Healthcare; 11778538) density centrifugation. Monocytes were purified using the EasySep™ human monocyte enrichment kit (StemCell) that purifies monocytes ‘untouched’ to maintain their phenotype.
Monocytes were cultured in the absence (unstimulated PBS vehicle controls) or presence of stimulation (LPS or peptidoglycan) in the absence (vehicle) or presence of LMW-DS (ILB®, Tikomed AB, Viken, Sweden, WO 2016/076780; three concentrations: 600 μg/ml, 200 μg/ml and 60 μg/ml), heparin (2.0, 6.0 or 20 μg/ml; equivalent to 0.406, 1.218 and 4.06 units/ml; Sigma Aldrich) or dexamethasone (3.0 μM; Sigma Aldrich) for 24 hours at 37° C., 5% CO2. Following centrifugation, cell culture supernatants were removed and stored at −20° C. awaiting analysis for IL-6 by ELISA. Levels of IL-6 were quantified in the supernatant by ELISA (R&D systems) according to manufacturer's instructions.

[3] = system: IL-6; assay: Serum IL-6 in MND/ALS patients treated with LMW-DS (Luminex), Example 4; type: in vivo, human; settings: 8 ALS patients; weekly 1.0 mg/kg s.c.; measured at 10 weeks of treatment
Source text: Serum samples were taken from Motor Neuron Disease (MND)/Amyotrophic Lateral Sclerosis (ALS) patients in a clinical trial (EudraCT Number: 2018-000668-28) prior to and 5, 10 and 24 weeks following treatment with LMW-DS (ILB®, Tikomed AB, Viken, Sweden, WO 2016/076780). Frozen serum samples were thawed and quantified for IL-6 using the Luminex assay system (Bio-Plex 200 system with Bio-Plex Manager software) according to manufacturer's instructions. After an initial screening visit, patients had weekly dosing of a single LMW-DS (ILB®, Tikomed AB, Viken, Sweden, WO 2016/076780) injection of 1.0 mg/kg body weight in saline into the subcutaneous fat of the lower abdomen with a maximum of 1.5 mL at each injection site.
Statistical analysis was performed using the non-parametric Mann-Whitney U test with p<0.05 considered significant.

[4] = system: human peripheral blood mononuclear cells (PBMCs); assay: Stimulated release of IL-6 from human PBMCs in vitro (ELISA), Example 1; type: cell-based; settings: 24 hours
Experimental: PBMCs were isolated from healthy donors through Ficoll-Paque PLUS (GE Healthcare; 11778538) density centrifugation. PBMC were cultured at 2×10^5 cells/well in the absence (unstimulated phosphate-buffered saline (PBS) vehicle controls) or presence of stimulation (lipopolysaccharide (LPS), peptidoglycan, pokeweed mitogen, phytohemagglutinin-L (PHA-L), CpG+IL-15, or Cytostim) in the absence (vehicle) or presence of LMW-DS (ILB®, Tikomed AB, Viken, Sweden, WO 2016/076780) at three concentrations; 60 μg/ml, 200 μg/ml and 600 μg/ml for 24 hours at 37° C., 5% CO2. Following centrifugation, cell culture supernatants were removed and stored at −20° C. awaiting analysis for IL-6 by ELISA. Levels of IL-6 were quantified in the supernatant by ELISA (R&D systems; DY206) according to manufacturer's instructions.

[5] = system: human PBMCs; assay: Cytokine secretion from stimulated human PBMCs (5-plex Luminex), Example 3; type: cell-based; settings: 24 hours; for stimulated secretion of IL-1β / stimulated secretion of IL-8 / stimulated secretion of TNFα: highest concentration of LMW-DS
Experimental: Example 1 investigated the ability of LMW-DS to modify the secretion of IL-6 from human PBMCs arising from the use of various stimuli. The present study performed a broader analysis of the cell culture supernatants arising from Example 1. Thus, peripheral blood mononuclear cells (PBMC) were isolated from healthy donors through Ficoll-Paque PLUS density centrifugation. The PBMC were cultured at 2×10^5 cells/well in the absence (unstimulated PBS vehicle controls) or presence of stimulation (LPS, peptidoglycan, pokeweed mitogen, PHA-L, CpG+IL-15, or Cytostim) in the absence (vehicle) or presence of LMW-DS (ILB®, Tikomed AB, Viken, Sweden, WO 2016/076780; three concentrations; 600 μg/ml, 200 μg/ml and 60 μg/ml) for 24 hours at 37° C., 5% CO2.
Accordingly, the treatments were as follows for each PBMC donor: • i. Vehicle • ii. Simulation • iii. Stimulation+LMW-DS (60 μg/ml) • iv. Stimulation+LMW-DS (200 μg/ml) • v. Stimulation+LMW-DS (600 μg/ml)
with each assessed in triplicate such that the total numbers of samples were: • 1. LPS; 165 samples (from 11 donors) • 2. Peptidoglycan from Bacillus subtilis; 90 samples (from 6 donors) • 3. PHA-L; 90 samples (from 6 donors) • 4. 0.2 μM CpG+IL-15; 90 samples (from 6 donors) • 5. 1.0 μM CpG+IL-15; 90 samples (from 6 donors) • 6. Pokeweed mitogen; 90 samples (from 6 donors) • 7. 10 μl/ml Cytostim; 90 samples (from 6 donors) • 8. 30 μl/ml Cytostim; 90 samples (from 6 donors) • Total number of supernatant samples from all stimulations (all cell types)=795
Following treatment, cell culture supernatants were removed, centrifuged and stored at −20° C. before thawing for multiplex analysis of various cytokines using the 5-plex human magnetic Luminex assay from R&D systems (Cat. No. LXSAHM-05). Luminex analysis was carried out exactly following manufacturer's protocols.

[6] = LPS (0.01 ng/ml) stimulated PBMC, 60, 200, 600 μg/ml
[7] = LPS (0.01 ng/ml) stimulated PBMC, 60, 200, 600 μg/ml, listed as Dextran sulfate
[8] = PHA-L (1.0 μg/ml) stimulated PBMC, 60, 200, 600 μg/ml
[9] = pokeweed mitogen (1.0 μg/ml) stimulated PBMC, 60, 200, 600 μg/ml
[10] = pokeweed mitogen (1.0 μg/ml) stimulated PBMC, 60, 200, 600 μg/ml, listed as dextran sulfate
[11] = Cytostim stimulated PBMC, listed as Dextran sulfate
[12] = LPS (0.01 ng/ml) stimulated PBMC
[13] = LPS (0.01 ng/ml) stimulated PBMC, listed as Dextran sulfate
[14] = PHA-L (1.0 μg/ml) stimulated PBMC
[15] = PHA-L (1.0 μg/ml) stimulated PBMC, listed as Dextran sulfate
[16] = peptidoglycan (30 ng/ml) stimulated PBMC
[17] = pokeweed mitogen (1.0 μg/ml) stimulated PBMC

infliximab
half-life [1]: around 14 days

heparin [reference compound]
LPS-stimulated IL-6 release into the cell culture supernatant [2]: concentration dependent statistically significant enhancement; also recorded: did not significantly suppress IL-6 levels in LPS activated monocytes but rather increased the levels
peptidoglycan-stimulated IL-6 release into the cell culture supernatant [2]: enhancement was mirrored to some extent by heparin although the trend did not reach statistical significance

low molecular weight dextran sulfate [LMW-DS]
serum IL-6 levels as % of Pre-LMW-DS levels [3]: statistically significant decrease
LPS-stimulated IL-6 release into the cell culture supernatant [2]: concentration dependent statistically significant inhibition
LPS-stimulated IL-6 release into the cell culture supernatant ([2]; listed as Dextran sulfate): concentration dependent reduction
peptidoglycan-stimulated IL-6 release into the cell culture supernatant [2]: concentration dependent statistically significant increase
IL-6 release ([4]; CpG (0.2 μM)+IL-15 (15 ng/ml) stimulated PBMC): not generally impacted
IL-6 release ([4]; Cytostim (10 μl/ml) stimulated PBMC): not generally impacted
IL-6 release into the cell culture supernatant [4, 6]: concentration dependent and statistically significant reduction
IL-6 release into the cell culture supernatant [4, 7]: concentration dependent reduction
IL-6 release into the cell culture supernatant ([4]; LPS (0.01 ng/ml) stimulated PBMC, 60, 200, 600 μg/ml, listed as dextran sulfate): suppress IL-6 cytokine production
IL-6 release [4, 8]: inhibited significantly in a concentration-dependent manner
IL-6 release ([4]; higher concentration CpG (1.0 μM)+IL-15 (15 ng/ml) stimulated PBMC): no general impact
IL-6 release ([4]; higher concentration CpG (1.0 μM)+IL-15 (15 ng/ml) stimulated PBMC, listed as dextran sulfate): not significantly affecting
IL-6 release ([4]; higher concentration Cytostim (30 μl/ml) stimulated PBMC): no general impact
IL-6 release ([4]; higher concentration Cytostim (30 μl/ml) stimulated PBMC, listed as dextran sulfate): not significantly affecting
IL-6 release into the cell culture supernatant ([4]; peptidoglycan (30 ng/ml) stimulated PBMC, 60, 200, 600 μg/ml): little evidence of LMW-DS, even at the highest concentration tested, of causing a general reduction in IL-6 release
IL-6 release into the cell culture supernatant ([4]; peptidoglycan (30 ng/ml) stimulated PBMC, 60, 200, 600 μg/ml, listed as dextran sulfate): not significantly affecting
IL-6 release [4, 9]: not impacted generally
IL-6 release [4, 10]: not significantly affecting
secretion of IL-8 ([5]; CpG+IL-15 stimulated PBMC): little impact
IL-10 secretion ([5]; Cytostim stimulated PBMC, 60, 200, 600 μg/ml): concentration dependent large reduction
IL-10 secretion ([5]; Cytostim stimulated PBMC, 60, 200, 600 μg/ml, listed as Dextran sulfate): reduction
secretion of IFNγ ([5]; Cytostim stimulated PBMC): small reductions
secretion of IL-1β ([5]; Cytostim stimulated PBMC): small reductions
secretion of IL-8 ([5]; Cytostim stimulated PBMC): small reductions
secretion of TNFα ([5]; Cytostim stimulated PBMC): small reductions
secretion of IFNγ [5, 11]: reduction
secretion of IL-8 [5, 11]: reduction
secretion of TNFα [5, 11]: reduction
secretion of IFNγ [5, 6]: concentration dependent but small reduction
secretion of IL-10 [5, 6]: concentration dependent but small reduction
secretion of IFNγ [5, 7]: reduction
secretion of IL-10 [5, 7]: reduction
stimulated secretion of IL-1β [5, 12]: modest reduction
stimulated secretion of IL-8 [5, 12]: modest reduction
stimulated secretion of TNFα [5, 12]: modest reduction
stimulated secretion of IL-1β [5, 13]: reduction
stimulated secretion of IL-8 [5, 13]: reduction
stimulated secretion of TNFα [5, 13]: reduction
IL-10 secretion [5, 8]: large, concentration dependent decrease
IL-10 secretion ([5]; PHA-L (1.0 μg/ml) stimulated PBMC, 60, 200, 600 μg/ml, listed as Dextran sulfate): reduction
stimulated release of IFNγ [5, 14]: small decreases
stimulated release of IL-8 [5, 14]: small decreases
stimulated release of TNFα [5, 14]: small decreases
stimulated release of IFNγ [5, 15]: reduction
stimulated release of TNFα [5, 15]: reduction
IL-1β secretion [5, 16]: associated increases
TNFα secretion [5, 16]: associated increases
cytokine release (IL-8) ([5]; peptidoglycan (30 ng/ml) stimulated PBMC, up to highest concentration tested): little evidence of LMW-DS, even at the highest concentration tested, of causing a general reduction in cytokine release
IL-10 secretion [5, 9]: concentration-dependent decrease
IL-10 secretion [5, 10]: reduction
secretion of IFNγ [5, 17]: not impacted generally
secretion of IL-1β [5, 17]: not impacted generally
secretion of IL-8 [5, 17]: not impacted generally
secretion of TNFα [5, 17]: not impacted generally

adalimumab
half-life [1]: around 14 days

certolizumab
half-life [1]: around 14 days
